Several values for one entry are separate records, joined by “and”; a condition that tells them apart may be missing. Equal entries are not always repeated.

Type in all cases: physicochemical
The nature of data set [1]: UV absorption of the derivatives in DMSO/ethanol. As to conditions: for E1% / εmax: at the λmax of the same block.
Data set [2] in a line: Macroscopic observation of 1% oily dispersions in phenylethyl benzoate. The settings on record: 1% by weight in phenylethyl benzoate (X-Tend 226), after about one week. On the procedure: (§1) Two micronizations of these compounds 1 and 2 are performed by milling in oily medium (oil: phenylethyl benzoate—X-Tend 226 from ISP) by means of a mill without addition of dispersant, using a Dispermat ball mill.
(§2) • Dispermat AE 06-C1 disperser-mill (Brant Industrie) • Dispersion: slurries containing 17% R056336A and 49% F17845 (difference in oil uptake) ˜3000 rpm ˜15 minutes • Milling under rapid conditions (30 minutes at 4500 rpm), not optimized (water-cooling circuit not operational) with 0.7-1.2 mm […] balls.
Two oily dispersions in phenylethyl benzoate (X-Tend 226) comprising 1% by weight, respectively, of compound 1A or 2A are then prepared.

Data set [3] is described as follows: Granulometric measurements by SLS (Mastersizer). On the procedure: as §1, §2
The granulometric results obtained by SLS using a Mastersizer granulometer reveal a very marked difference in particle size between compound 1 and compound 2, with particle sizes d(0.5), respectively, of 0.118 μm as opposed to 851 μm.

In the case of `C[Si](C)(C)COC(=O)c1ccc(Nc2nc(Nc3ccc(C(=O)OC[Si](C)(C)C)c(O)c3)nc(Nc3ccc(C(=O)OC[Si](C)(C)C)c(O)c3)n2)cc1O` [Example 3, 2,4,6-tris(methyltrimethyl-silyl 4′-aminosalicylate)-s-triazine], in data set [1], the λmax was 326 nm and 300 nm; the E1% is 1456 and 938; the εmax is 107 610 and 74 400.

As for `CC(C)(C)CC(C)(C)c1cc(Cc2cc(C(C)(C)CC(C)(C)C)cc(-n3nc4ccccc4n3)c2O)c(O)c(-n2nc3ccccc3n2)c1` [Compound 2, methylenebis(benzo-triazolyl)tetramethylbutylphenol], the “macroscopic stability of dispersion” value in data set [2] was “totally insoluble”.

For the molecule `COc1ccc(-c2nc(Nc3ccc(C(=O)OC[Si](C)(C)C)cc3)nc(Nc3ccc(C(=O)OC[Si](C)(C)C)cc3)n2)cc1` [Example 4, 2,4-bis(methyltrimethylsilyl 4′-aminobenzoate)-6-(para-methoxyphenyl)-s-triazine], in data set [1], the λmax was found to be 303 nm, the E1% came to 1313 and the εmax was 82 700.

Turning to `CC12CCC(/C(=C\c3ccc(Nc4nc(Nc5ccc(C(=O)OC[Si](C)(C)C)cc5)nc(Nc5ccc(C(=O)OC[Si](C)(C)C)cc5)n4)cc3)C1=O)C2(C)C` (stereo not shown) [Example 6, 2,4-bis(methyltrimethylsilyl 4′-aminobenzoate)-6-(4″-aminobenzylidenecamphor)-s-triazine], the λmax in data set [1] is 313 nm and 345 nm.

For `COc1ccc(-c2nc(Nc3ccc(C(=O)OC[Si](C)(C)C)c(O)c3)nc(Nc3ccc(C(=O)OC[Si](C)(C)C)c(O)c3)n2)cc1` [Example 5, 2,4-bis(methyltrimethylsilyl 4′-aminosalicylate)-6-(para-methoxyphenyl)-s-triazine], in data set [1], the λmax is 329 nm and 316 nm and 298 nm; the E1% was 927 and 1066 and 1030; the εmax was 61 370 and 70 570 and 68 190.

Regarding `C[Si](C)(C)CNC(=O)c1ccc(Nc2nc(Nc3ccc(C(=O)NC[Si](C)(C)C)cc3)nc(Nc3ccc(C(=O)NC[Si](C)(C)C)cc3)n2)cc1` [Example 7, 2,4,6-tris(methyltrimethyl-silyl 4′-aminobenzamide)-s-triazine], in data set [1], the λmax turned out to be 303 nm, the E1% stood at 1123 and the εmax was 83 330.

As for `CCCCOC(=O)c1ccc(Nc2nc(Nc3ccc(C(=O)OC[Si](C)(C)C)cc3)nc(Nc3ccc(C(=O)OC[Si](C)(C)C)cc3)n2)cc1` [Example 2, 2,4-bis(methyltrimethylsilyl 4′-aminobenzoate)-6-(butyl 4″-aminobenzoate)-s-triazine], in data set [1], the λmax is listed as 313 nm, the E1% turned out to be 1660 and the εmax is given as 104 560.

Turning to `C[Si](C)(C)COC(=O)c1ccc(Nc2nc(Nc3ccc(C(=O)OC[Si](C)(C)C)cc3)nc(Nc3ccc(C(=O)OC[Si](C)(C)C)cc3)n2)cc1` [Example 1, 2,4,6-tris(methyltrimethyl-silyl 4′-aminobenzoate)-s-triazine], in data set [1], the λmax is recorded as 314 nm, the E1% was 1700 and the εmax is reported as 126 660. The “particle size d(0.5)” value in data set [3] (after milling in phenylethyl benzoate without dispersant, SLS Mastersizer) was 0.118 μm. Besides, the “dispersibility in the oil phenylethyl benzoate” value in data set [3] (overall conclusion, compared with compound 2) is “markedly superior dispersibility”.

Source of the values: patent US20110097365A1, “S-TRIAZINE DERIVATIVES CONTAINING AT LEAST TWO PARTICULAR SILANE AMINOBENZOATE OR SILANE AMINOBENZAMIDE GROUPS; PHOTOPROTECTIVE COSMETIC COMPOSITIONS CONTAINING THESE DERIVATIVES; USES OF THE SAID S-TRIAZINE DERIVATIVES” (L'OREAL, priority 2007, published 2011).
